Reference: PMC8016998, “Identification of potential therapeutic antimicrobial peptides against Acinetobacter baumannii in a mouse model of pneumonia” (Scientific Reports, 2021)
No end group written: not given here.

Experiments:
[1] = tested on: Acinetobacter baumannii 17,978; assay type: cell-based; conditions: 24 h at 37 °C, triplicate; for MBC: 10 µL from wells without turbidity onto LB agar;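 as to all read-outs here: CLSI broth microdilution in 96-well polypropylene plates, MBC taken as lowest concentration giving no growth when clear wells were subcultured on LB agar for 24 h at 37 °C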
Description: (§1) MBC were determined by extending the MIC procedure in sterilized 96-well polypropylene microtiter plates according to the broth microdilution guidelines of the Clinical and Laboratory Standards Institute with some modification[47]. […] In addition, 10 µL was drawn from each well with no visible turbidity onto LB agar plates and incubated for 24 h at 37 °C. The lowest concentration showing no visible growth on agar subculture was used as the MBC value. All experiments were performed in triplicate.

[2] = tested on: Acinetobacter baumannii 19,606; assay type: cell-based; conditions: 24 h at 37 °C, triplicate
[3] = tested on: MDRAB clinical strains; assay type: cell-based, Acinetobacter baumannii; conditions: range over MDRAB clinical strains (details in Supplementary Table 2), 24 h 37 °C; for MBC: subculture on LB agar
Description: as §1

[4] = tested on: MDRAB clinical strain J49; assay type: cell-based, Acinetobacter baumannii; conditions: strain J49, 24 h 37 °C; for MIC: broth microdilution, LB; for MBC: subculture on LB agar
Description: as §1

[5] = tested on: MDRAB clinical strain K2; assay type: cell-based, Acinetobacter baumannii; conditions: strain K2, 24 h 37 °C; for MIC: broth microdilution, LB; for MBC: subculture on LB agar
Description: as §1

[6] = tested on: MDRAB clinical strain Y92; assay type: cell-based, Acinetobacter baumannii; conditions: strain Y92, 24 h 37 °C; for MIC: broth microdilution, LB; for MBC: subculture on LB agar
Description: as §1

[7] = tested on: MDRAB clinical strain W11; assay type: cell-based, Acinetobacter baumannii; conditions: strain W11, 24 h 37 °C; for MIC: broth microdilution, LB; for MBC: subculture on LB agar
Description: as §1

[8] = tested on: MDRAB clinical strain U80; assay type: cell-based, Acinetobacter baumannii; conditions: strain U80, 24 h 37 °C; for MIC: broth microdilution, LB; for MBC: subculture on LB agar
Description: as §1

[9] = tested on: MDRAB clinical strain U95; assay type: cell-based, Acinetobacter baumannii; conditions: strain U95, 24 h 37 °C; for MIC: broth microdilution, LB; for MBC: subculture on LB agar
Description: as §1

[10] = tested on: MDRAB clinical strain O59; assay type: cell-based, Acinetobacter baumannii; conditions: strain O59, 24 h 37 °C; for MIC: broth microdilution, LB; for MBC: subculture on LB agar
[11] = tested on: MDRAB clinical strain D29; assay type: cell-based, Acinetobacter baumannii; conditions: strain D29, 24 h 37 °C; for MIC: broth microdilution, LB; for MBC: subculture on LB agar
Description: as §1

[12] = tested on: MDRAB clinical strain L87; assay type: cell-based, Acinetobacter baumannii; conditions: strain L87, 24 h 37 °C; for MIC: broth microdilution, LB; for MBC: subculture on LB agar
Description: as §1

[13] = tested on: MDRAB clinical strain AO80; assay type: cell-based, Acinetobacter baumannii; conditions: strain AO80, 24 h 37 °C; for MIC: broth microdilution, LB; for MBC: subculture on LB agar
[14] = tested on: MDRAB clinical strain AS40; assay type: cell-based, Acinetobacter baumannii; conditions: strain AS40, 24 h 37 °C; for MIC: broth microdilution, LB; for MBC: subculture on LB agar
[15] = tested on: MDRAB clinical strain AK29; assay type: cell-based, Acinetobacter baumannii; conditions: strain AK29, 24 h 37 °C; for MIC: broth microdilution, LB; for MBC: subculture on LB agar
Description: as §1

[16] = tested on: MDRAB clinical strain AK61; assay type: cell-based, Acinetobacter baumannii; conditions: strain AK61, 24 h 37 °C; for MIC: broth microdilution, LB; for MBC: subculture on LB agar
Description: as §1

[17] = tested on: MDRAB clinical strain AE5; assay type: cell-based, Acinetobacter baumannii; conditions: strain AE5, 24 h 37 °C; for MIC: broth microdilution, LB; for MBC: subculture on LB agar
Description: as §1

[18] = tested on: MDRAB clinical strain AE6; assay type: cell-based, Acinetobacter baumannii; conditions: strain AE6, 24 h 37 °C; for MIC: broth microdilution, LB; for MBC: subculture on LB agar
Description: as §1

[19] = tested on: MDRAB clinical strain AF11; assay type: cell-based, Acinetobacter baumannii; conditions: strain AF11, 24 h 37 °C; for MIC: broth microdilution, LB; for MBC: subculture on LB agar
Description: as §1

[20] = tested on: MDRAB clinical strain AF12; assay type: cell-based, Acinetobacter baumannii; conditions: strain AF12, 24 h 37 °C; for MIC: broth microdilution, LB; for MBC: subculture on LB agar
[21] = tested on: MDRAB clinical strain AF93; assay type: cell-based, Acinetobacter baumannii; conditions: strain AF93, 24 h 37 °C; for MIC: broth microdilution, LB; for MBC: subculture on LB agar
[22] = tested on: MDRAB clinical strain AG51; assay type: cell-based, Acinetobacter baumannii; conditions: strain AG51, 24 h 37 °C; for MIC: broth microdilution, LB; for MBC: subculture on LB agar
Description: as §1

[23] = tested on: MDRAB clinical strain AN10; assay type: cell-based, Acinetobacter baumannii; conditions: strain AN10, 24 h 37 °C; for MIC: broth microdilution, LB; for MBC: subculture on LB agar
Description: as §1

[24] = tested on: MDRAB clinical strain AL87; assay type: cell-based, Acinetobacter baumannii; conditions: strain AL87, 24 h 37 °C; for MIC: broth microdilution, LB; for MBC: subculture on LB agar
[25] = tested on: MDRAB clinical strain AZ93; assay type: cell-based, Acinetobacter baumannii; conditions: strain AZ93, 24 h 37 °C; for MIC: broth microdilution, LB; for MBC: subculture on LB agar

CC[C@H](C)[C@H](NC(=O)CNC(=O)[C@@H](NC(=O)[C@H](CCCCN)NC(=O)[C@H](CCCCN)NC(=O)[C@H](Cc1ccccc1)NC(=O)[C@H](CC(C)C)NC(=O)[C@H](CCCCN)NC(=O)[C@H](Cc1c[nH]c2ccccc12)NC(=O)[C@@H](N)CCCCN)[C@@H](C)CC)C(=O)NCC(=O)N[C@@H](C)C(=O)N[C@H](C(=O)N[C@@H](CC(C)C)C(=O)N[C@@H](CCCCN)C(=O)N[C@H](C(=O)N[C@@H](CC(C)C)C(=O)N[C@H](C(=O)N[C@H](C(=O)NCC(N)=O)[C@@H](C)O)[C@@H](C)O)C(C)C)C(C)C [CAME]
8 to 64 µg/mL: MBC [3]
8 µg/mL: MIC [5] | MIC [13] | MIC [14] | MBC [14] | MIC [15] | MIC [16] | MIC [25] | MBC [25]
64 µg/mL: MBC [9] | MBC [10] | MBC [12]
32 µg/mL: MBC [1] | MIC ([1]; broth microdilution (CLSI, modified), LB medium, 5 × 10^5 CFU/mL, lowest concentration with no visible growth) | MBC ([2]; 10 µL from wells without turbidity onto LB agar) | MIC ([2]; broth microdilution (CLSI, modified), LB medium, 5 × 10^5 CFU/mL) | MBC [4] | MIC [6] | MBC [6] | MBC [7] | MBC [8] | MIC [9] | MIC [10] | MIC [11] | MBC [11] | MIC [12] | MIC [17] | MBC [17] | MIC [18] | MBC [18] | MBC [19] | MIC [21] | MBC [21] | MBC [22] | MBC [23] | MIC [24] | MBC [24]
8 to 32 µg/mL: MIC ([3]; broth microdilution, LB)
16 µg/mL: MIC [4] | MBC [5] | MIC [7] | MIC [8] | MBC [13] | MBC [15] | MBC [16] | MIC [19] | MIC [20] | MBC [20] | MIC [22] | MIC [23]

GLGSVFGRLARILGRVIPKV-NH2 [Pilosulin]
16 µg/mL: MIC [4] | MBC [4] | MIC [5] | MIC [7] | MBC [7] | MIC [8] | MBC [8] | MIC [10] | MBC [10] | MIC [11] | MIC [12] | MBC [12] | MIC [13] | MIC [14] | MBC [14] | MIC [15] | MBC [15] | MIC [16] | MBC [16] | MBC [17] | MIC [18] | MBC [18] | MBC [19] | MBC [20] | MBC [22] | MIC [25] | MBC [25]
8 µg/mL: MIC [6] | MBC [6] | MIC [17] | MIC [19] | MIC [20] | MIC [21] | MBC [21] | MIC [22] | MIC [23] | MBC [23] | MIC [24] | MBC [24]
8 to 32 µg/mL: MBC [3]
32 µg/mL: MBC [1] | MBC [5] | MIC [9] | MBC [9] | MBC [11] | MBC [13]
